Reference: patent publication US8097252B2, “Methods and compositions for administering therapeutic and diagnostic agents” (Immunomedics, Inc., priority 2003, dated 2012)
Starred links: 1 amine or outer side, 2 acyl side, 3 side chain; linkers in the order of their positions; H or OH if unused. Non-standard residues stand in square brackets, D forms with d. Residues, ends and D or L forms follow the SMILES beside them. Groups on a side chain read outwards from the residue. *: point of attachment. DTPA = O=C(O)CN(CCN(CC(=O)O)CC(=O)O)CCN(CC(=O)O)CC(=O)*; NH(2-(imidazol-4-yl)ethyl) = c1ncc(CCN*)[nH]1; Suc = O=C(CCC(=O)[*:2])[*:1]

Assays:
[1] = Stability of 111In IMP 272 in fresh human serum; format: in vitro ADME; settings: 37° C.
Description: (§1) ^111InCl3 (30.4 μL) was added to 500 μL of DI H2O. This solution was added to the prepared vial of IMP 272 and allowed to sit for approximately 20 minutes at room temperature. An additional 600 μL of cold In Acetate Buffer (1.0×10^−4M InCl3, 0.5M NaOAc, pH 6.5) was then added to the same vial and allowed to sit for an additional 45 minutes. The total volume was 1130 μL with a molar quantity of […] of IMP 272 yielding a concentration of 8.777×10^−6M. After the labeling was completed, the peptide was tested for stability in fresh human and nude mouse serum over 24 hrs. The peptide was also tested for binding to humanized antibodies; m679×hMN14, and, m734×hMN14.
^111In IMP 272, 60 μL, was added to 540 μL fresh human serum. This was vortexed and placed under a constant temperature of 37° C. The peptide concentration for this mixture was 8.777×10^−7M.

[2] = Stability of 111In IMP 272 in fresh nude mouse serum; format: in vitro ADME; settings: 37° C., 24 hr
Description: as §1
^111In IMP 272, 44 μL, was added to 400 μl fresh nude mouse serum. This was vortexed and placed under a constant temperature of 37° C. The peptide concentration for this mixture was 8.698×10^−7M.

[3] = Biodistribution in nude mice bearing GW-39 xenografts (lock and chase); format: in vivo; settings: mouse, tumor (GW-39 xenograft), iv, 76 ng, total radioactivity, 3 hrs post-IMP-272, assumption, read-out: amount in tumor
Description: To study the half-life of a pretargeted defined chemical substance (DCS), known as IMP-272 on a tumor, the following experiment is performed in nude mice bearing GW-39 human colorectal cancer xenografts. Animals receive three injections as follows: first injection of anti-CEA BS1.5HP diabody (hMN-14×679) followed 24 hours later with IMP-272, which is followed 3 hours later by the anti-In-DTPA F(ab′)2 antibody, 734. BS1.5HP is labeled with ^125I and the IMP-272 is labeled with ^111In. The synthesis and use of this diabody is disclosed in Clin. Cancer Res. 9:3886s-3896s (2003), and is herein incorporated in its entirety by reference. Known standard molecular biology methods were used to prepare the BS1.5HP
To test for maximum cross-linking of peptide on the surface of the tumor, the total protein dose of 734 F(ab′)2 injected ranges from 10 μg to 100 μg. Four groups of mice are administered 10 μCi ^125I-BS1.5HP (27 μg, 5.0×10^−10 moles) followed 24 hours later by 25 μCi ^111In-IMP-272 (5.0×10^−11 moles) for a bispecific:IMP-272 ratio of 10:1. IMP-272 is administered 3 hours before the administration of 734 F(ab′)2 to target the tumor and clear from the blood. […]
At the specified necropsy time, 5 animals are anesthetized, bled by cardiac puncture followed by cervical dislocation. […] Tissues is counted in a calibrated gamma counter for ^111In and ^125I. […]

B-cell lymphoma = assay: Therapy of B-cell lymphoma patient with internalization by cross-linking; format: in vivo
Description: A patient having B-cell lymphoma with extensive node involvement is infused intraveneously with a sterile, pyrogen-free solution containing a target dose of bispecific hA20Fab-679scFv prepared as described in U.S. application Ser. Nos. 09/337,756 and 60/360,229. After 24 hours, the patient then is infused intraveneously with a sterile, pyrogen-free PBS solution that contains a therapeutic dose of DTPA-Gln-Ala-Lys(HSG)-D-[I-131Tyr]-Lys(HSG)-NH2. After 24 hours the patient then is intraveneously infused with 50 mg of sterile, pyrogen-free PBS solution of bispecific hLL1IgG[734scFv]. […] This administration is illustrated schematically in FIG. 6-9.

Row | Molecule | stability in human serum (conclusion) [1] | peptide state after incubation in human serum ([1]; 1 hour) | binding to HSG after incubation in human serum ([1]; 24 hr) | binding to one of the two HSG's compromised ([1]; 24 hr, size exclusion HPLC) | stability in mouse serum [2] | tissue uptake at 3 h [3] | size of the lymphoma-involved nodes (B-cell lymphoma; CAT scans over the next few months) | localization and retention of I-131 in lymphoma involved nodes (B-cell lymphoma; radioimmunodetection)
1 | C[C@H](NC(=O)[C@H](CCC(N)=O)NC(=O)CN(CCN(CCN(CC(=O)O)CC(=O)O)CC(=O)O)CC(=O)O)C(=O)N[C@@H](CCCCNC(=O)CNC(=O)CCC(=O)NCCc1c[nH]cn1)C(=O)N[C@H](Cc1ccc(O)cc1)C(=O)N[C@@H](CCCCNC(=O)CNC(=O)CCC(=O)NCCc1c[nH]cn1)C(N)=O (111In complex, metal not drawn) [IMP 272, DTPA-Gln-Ala-Lys(HSG)-D-Tyr-Lys(HSG)-NH2] ({DTPA}-QAK([Gly-Suc-NH(2-(imidazol-4-yl)ethyl)])[dY]K([Gly-Suc-NH(2-(imidazol-4-yl)ethyl)])-NH2) | partially metabolized | intact | lost some of the binding to HSG | about 50% | stable | ~20 %ID/g |  | 
2 | DTPA-Gln-Ala-Lys(HSG)-D-[I-131Tyr]-Lys(HSG)-NH2 |  |  |  |  |  |  | significant reduction | intensive localization and long retention
